The values that follow come from patent US20210009564A1, “CALPAIN MODULATORS AND THERAPEUTIC USES THEREOF” (BLADE THERAPERTICS, INC., priority 2018, published 2021).

Assay [1] addresses T1, Human Calpain 2/NS1 (Homo sapiens, UniProt P17655).
T1 sequence (P17655 1-700): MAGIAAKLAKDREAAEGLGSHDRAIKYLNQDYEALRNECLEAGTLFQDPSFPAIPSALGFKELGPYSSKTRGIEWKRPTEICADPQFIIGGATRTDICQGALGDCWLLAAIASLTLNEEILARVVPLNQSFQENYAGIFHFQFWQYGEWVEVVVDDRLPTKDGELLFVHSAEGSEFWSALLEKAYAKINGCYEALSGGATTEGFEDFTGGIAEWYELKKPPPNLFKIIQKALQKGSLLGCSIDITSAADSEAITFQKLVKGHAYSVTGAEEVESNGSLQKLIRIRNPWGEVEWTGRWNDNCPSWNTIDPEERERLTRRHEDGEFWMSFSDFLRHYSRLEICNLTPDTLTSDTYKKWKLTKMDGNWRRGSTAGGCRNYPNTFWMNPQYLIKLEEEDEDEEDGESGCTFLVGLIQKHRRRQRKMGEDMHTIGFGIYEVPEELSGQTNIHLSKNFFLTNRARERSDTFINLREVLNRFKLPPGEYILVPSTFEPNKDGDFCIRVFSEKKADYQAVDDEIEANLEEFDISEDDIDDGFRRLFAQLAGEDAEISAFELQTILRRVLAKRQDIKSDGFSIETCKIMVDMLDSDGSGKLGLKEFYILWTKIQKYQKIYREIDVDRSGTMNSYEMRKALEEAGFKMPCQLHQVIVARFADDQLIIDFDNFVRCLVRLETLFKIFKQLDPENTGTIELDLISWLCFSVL
T1 sequence (P04632 1-268 partner): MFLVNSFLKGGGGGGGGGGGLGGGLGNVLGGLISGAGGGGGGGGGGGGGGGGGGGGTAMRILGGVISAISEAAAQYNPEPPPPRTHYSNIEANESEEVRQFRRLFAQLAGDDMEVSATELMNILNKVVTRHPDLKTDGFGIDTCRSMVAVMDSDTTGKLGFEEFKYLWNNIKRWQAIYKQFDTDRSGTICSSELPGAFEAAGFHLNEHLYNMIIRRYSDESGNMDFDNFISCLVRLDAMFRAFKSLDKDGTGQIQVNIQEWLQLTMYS
Description: Calpain inhibition, continuous fluorescence (FRET substrate) assay, calpain 2. In kind it is biochemical. Particulars: SensoLyte 520 FRET substrate, 25C. An outline of the steps:
(§1)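 Continuous FRET read-out (ex 490/em 520 nm) of 5-FAM/QXL 520 substrate cleavage, started by adding substrate with CaCl2 for in-situ activation after enzyme–inhibitor preincubation at 25 °C. Buffer was Tris 50 mM pH 7.5, NaCl 100 mM, DTT 1 mM. IC50 fitted (4-parameter) from rates over 1-5 min.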

In assay [2] the test system is Calpain activity in SH-SY5Y cells. Briefly: SH-SY5Y spectrin breakdown product (SBDP-150) western blot assay. The class given is cell-based. To be noted: Homo sapiens; SH-SY5Y cells, 25 uM A23187, SBDP-150 western blot; read-out: SH-SY5Y Spectrin IC50.
Assay [3] deals with T2, Human Calpain 1/NS1 (Homo sapiens, UniProt P07384).
T2 sequence (P07384 1-714): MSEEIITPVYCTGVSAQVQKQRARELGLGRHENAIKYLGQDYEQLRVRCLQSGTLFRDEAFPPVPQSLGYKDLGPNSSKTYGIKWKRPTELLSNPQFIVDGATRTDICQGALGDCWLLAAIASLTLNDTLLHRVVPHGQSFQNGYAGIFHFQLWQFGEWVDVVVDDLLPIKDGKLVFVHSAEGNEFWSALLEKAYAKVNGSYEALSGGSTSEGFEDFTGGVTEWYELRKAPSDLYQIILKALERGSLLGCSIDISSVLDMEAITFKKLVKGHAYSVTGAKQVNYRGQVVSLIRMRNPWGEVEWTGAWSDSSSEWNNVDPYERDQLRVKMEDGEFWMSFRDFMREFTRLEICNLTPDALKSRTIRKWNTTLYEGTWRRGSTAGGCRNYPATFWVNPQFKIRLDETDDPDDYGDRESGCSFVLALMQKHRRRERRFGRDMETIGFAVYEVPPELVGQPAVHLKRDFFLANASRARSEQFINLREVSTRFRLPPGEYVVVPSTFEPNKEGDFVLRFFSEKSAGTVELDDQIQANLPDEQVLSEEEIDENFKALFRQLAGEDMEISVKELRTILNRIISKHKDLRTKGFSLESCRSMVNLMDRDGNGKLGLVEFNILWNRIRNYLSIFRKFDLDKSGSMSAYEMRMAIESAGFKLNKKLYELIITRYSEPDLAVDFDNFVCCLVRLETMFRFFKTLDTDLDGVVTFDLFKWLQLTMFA
T2 sequence (P04632 1-268 partner): T1 sequence (P04632 1-268 partner)
Description: Calpain inhibition, continuous fluorescence (FRET substrate) assay, calpain 1. The class given is biochemical. To be noted: SensoLyte 520 FRET substrate, 25C. In outline: as §1

Assay [4] has as its target T3, Human Calpain 9/NS1 (Homo sapiens, UniProt O14815).
T3 sequence (O14815 1-690): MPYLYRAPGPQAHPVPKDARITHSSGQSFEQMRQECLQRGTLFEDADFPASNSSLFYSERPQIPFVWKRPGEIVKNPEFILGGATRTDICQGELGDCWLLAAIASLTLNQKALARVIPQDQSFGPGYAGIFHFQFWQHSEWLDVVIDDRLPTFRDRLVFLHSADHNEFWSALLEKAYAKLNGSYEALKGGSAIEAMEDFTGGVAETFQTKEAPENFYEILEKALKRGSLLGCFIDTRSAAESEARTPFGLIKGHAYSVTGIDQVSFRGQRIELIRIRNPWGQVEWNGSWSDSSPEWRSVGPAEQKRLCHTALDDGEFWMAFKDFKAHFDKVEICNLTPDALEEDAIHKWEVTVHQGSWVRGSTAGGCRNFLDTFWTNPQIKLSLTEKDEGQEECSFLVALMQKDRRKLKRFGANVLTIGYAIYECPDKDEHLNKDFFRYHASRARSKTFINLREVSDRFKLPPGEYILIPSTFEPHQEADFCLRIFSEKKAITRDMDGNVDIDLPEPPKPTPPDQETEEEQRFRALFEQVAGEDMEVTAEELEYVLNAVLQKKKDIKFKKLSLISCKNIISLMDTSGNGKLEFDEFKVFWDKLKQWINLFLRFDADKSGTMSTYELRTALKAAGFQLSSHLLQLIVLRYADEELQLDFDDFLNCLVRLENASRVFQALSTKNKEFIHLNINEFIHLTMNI
T3 sequence (P04632 1-268 partner): T1 sequence (P04632 1-268 partner)
Briefly: Calpain inhibition, continuous fluorescence (FRET substrate) assay, calpain 9. To be noted: SensoLyte 520 FRET substrate, 25C. In kind it is biochemical. In outline:
as §1

In assay [5] the test system is Calpain activity in SH-SY5Y cells. Briefly: SH-SY5Y Suc-LLVY-AMC fluorescence assay. The class given is cell-based. Particulars: Homo sapiens; SH-SY5Y cells, 100 uM Suc-LLVY-AMC; read-out: SH-SY5Y + AMC IC50.

Where a name gives a salt, the structure may show the parent alone.

For the compound `NC(=O)C(=O)C(Cc1ccccc1)NC(=O)c1cn(C(F)F)nc1-c1nccc2ccccc12` (centres unmarked) [Compound 4, N-(4-AMINO-3,4-DIOXO-1-PHENYLBUTAN-2-YL)-1-(DIFLUOROMETHYL)-3-(ISOQUINOLIN-1-YL)-1H-PYRAZOLE-4-CARBOXAMIDE], the IC50 in assay [1] is less than 3 µM; in assay [2], greater than 25 µM; in assay [3], less than 3 µM; in assay [4], less than 3 µM; in assay [5], less than 10 µM.
With `O=C(NC(Cc1ccccc1)C(=O)c1nnn[nH]1)c1nsnc1-c1ccccc1` (centres unmarked) [Compound 93, N-(1-OXO-3-PHENYL-1-(1H-TETRAZOL-5-YL)PROPAN-2-YL)-4-PHENYL-1,2,5-THIADIAZOLE-3-CARBOXAMIDE], the IC50 in assay [1] is greater than 10 µM; in assay [2], greater than 25 µM; in assay [3] it was greater than 10 µM; in assay [4] it was greater than 10 µM; in assay [5], greater than 25 µM.
Take `Cn1cc(C(=O)NC(Cc2ccccc2)C(=O)C(N)=O)c(-c2cccc3oc(=O)[nH]c23)n1` (centres unmarked) [Compound 35, N-(4-AMINO-3,4-DIOXO-1-PHENYLBUTAN-2-YL)-1-METHYL-3-(2-OXO-2,3-DIHYDROBENZO[D]OXAZOL-4-YL)-1H-PYRAZOLE-4-CARBOXAMIDE]: the IC50 is less than 3 µM in assay [1]; less than 10 µM in assay [2]; less than 3 µM in assay [3]; less than 3 µM in assay [4]; less than 10 µM in assay [5].
Take `COC(=O)C(=O)C(Cc1ccccc1)NC(=O)c1cn(C2CC2)nc1-c1ccccc1` (centres unmarked) [Compound 41, METHYL 3-(1-CYCLOPROPYL-3-PHENYL-1H-PYRAZOLE-4-CARBOXAMIDO)-2-OXO-4-PHENYLBUTANOATE]: the IC50 in assay [1] is less than 3 µM; in assay [2], greater than 25 µM; in assay [3] it was less than 3 µM; in assay [4], less than 3 µM; in assay [5], less than 10 µM.
`O=C(NC(Cc1ccccc1)C(=O)c1nc2ccccc2o1)c1nsnc1-c1ccccc1` (centres unmarked) [Compound 86, N-(1-(BENZO[d]OXAZOL-2-YL)-1-OXO-3-PHENYLPROPAN-2-YL)-4-PHENYL-1,2,5-THIADIAZOLE-3-CARBOXAMIDE]: the IC50 in assay [1] was greater than 10 µM; in assay [2], greater than 25 µM; in assay [3], greater than 10 µM; in assay [4], greater than 10 µM; in assay [5], greater than 25 µM.
Take `Cc1nc(-c2ccoc2C)c(C(=O)NC(Cc2ccccc2)C(=O)C(N)=O)o1` (centres unmarked) [Compound 84, N-(4-AMINO-3,4-DIOXO-1-PHENYLBUTAN-2-YL)-2-METHYL-4-(2-METHYLFURAN-3-YL)OXAZOLE-5-CARBOXAMIDE]: the IC50 in assay [1] is less than 3 µM; in assay [2] it was 10 to 25 µM; in assay [3], less than 3 µM; in assay [4] it was less than 3 µM; in assay [5], less than 10 µM.
For `Cn1cc(C(=O)NC(Cc2ccccc2)C(=O)C(N)=O)c(N2CCNCC2)n1` (centres unmarked) [Compound 2, N-(4-AMINO-3,4-DIOXO-1-PHENYLBUTAN-2-YL)-1-METHYL-3-(PIPERAZIN-1-YL)-1H-PYRAZOLE-4-CARBOXAMIDE HYDROCHLORIDE], the IC50 in assay [1] was 3 to 10 µM; in assay [2], greater than 25 µM; in assay [3], greater than 10 µM; in assay [4], greater than 10 µM; in assay [5], 10 to 25 µM.
In the case of `COc1cccc(-c2nn(C)cc2C(=O)NC(Cc2ccccc2)C(=O)C(N)=O)c1OC` (centres unmarked) [Compound 12, N-(4-AMINO-3,4-DIOXO-1-PHENYLBUTAN-2-YL)-3-(2,3-DIMETHOXYPHENYL)-1-METHYL-1H-PYRAZOLE-4-CARBOXAMIDE], the IC50 in assay [1] was less than 3 µM; in assay [2], greater than 25 µM; in assay [3] it was 3 to 10 µM; in assay [4], less than 3 µM; in assay [5], greater than 25 µM.
Regarding `Cc1cc(-c2nc(C)oc2C(=O)NC(Cc2ccccc2)C(=O)C(N)=O)c(C)o1` (centres unmarked) [Compound 78, N-(4-AMINO-3,4-DIOXO-1-PHENYLBUTAN-2-YL)-4-(2,5-DIMETHYLFURAN-3-YL)-2-METHYLOXAZOLE-5-CARBOXAMIDE], the IC50 in assay [1] is less than 3 µM; in assay [2] it was 10 to 25 µM; in assay [3], less than 3 µM; in assay [4] it was less than 3 µM; in assay [5], less than 10 µM.
Regarding `Cc1nc(-c2cc(Cl)oc2Cl)c(C(=O)NC(Cc2ccccc2)C(=O)C(N)=O)o1` (centres unmarked) [Compound 81, N-(4-AMINO-3,4-DIOXO-1-PHENYLBUTAN-2-YL)-4-(2,5-DICHLOROFURAN-3-YL)-2-METHYLOXAZOLE-5-CARBOXAMIDE], the IC50 was less than 3 µM in assay [1]; 10 to 25 µM in assay [2]; less than 3 µM in assay [3]; less than 3 µM in assay [4]; less than 10 µM in assay [5].
For the compound `NC(=O)C(=O)C(Cc1ccccc1)NC(=O)c1cn(C(F)F)nc1-c1cccc2ccncc12` (centres unmarked) [Compound 22, N-(4-AMINO-3,4-DIOXO-1-PHENYLBUTAN-2-YL)-1-(DIFLUOROMETHYL)-3-(ISOQUINOLIN-8-YL)-1H-PYRAZOLE-4-CARBOXAMIDE], the IC50 in assay [1] is less than 3 µM; in assay [2], less than 10 µM; in assay [3] it was less than 3 µM; in assay [4] it was less than 3 µM; in assay [5], less than 10 µM.
Turning to `Cn1cc(C(=O)NC(Cc2ccccc2)C(=O)C(N)=O)c(-c2cccc3cn[nH]c23)n1` (centres unmarked) [Compound 39, N-(4-AMINO-3,4-DIOXO-1-PHENYLBUTAN-2-YL)-3-(1H-INDAZOL-7-YL)-1-METHYL-1H-PYRAZOLE-4-CARBOXAMIDE], the IC50 in assay [1] was less than 3 µM; in assay [2], less than 10 µM; in assay [3], less than 3 µM; in assay [4] it was less than 3 µM; in assay [5], 10 to 25 µM.
In the case of `Cc1cc(-c2nsnc2C(=O)NC(Cc2ccccc2)C(=O)C(N)=O)c(C)o1` (centres unmarked) [Compound 23, N-(4-AMINO-3,4-DIOXO-1-PHENYLBUTAN-2-YL)-4-(2,5-DIMETHYLFURAN-3-YL)-1,2,5-THIADIAZOLE-3-CARBOXAMIDE], the IC50 is less than 3 µM in assay [1]; less than 10 µM in assay [2]; less than 3 µM in assay [3]; less than 3 µM in assay [4]; less than 10 µM in assay [5].
